Reference: patent US12280068B1 (ZYLORION HEALTH INC., priority 2023, dated 2025)

What was measured:
h5HT2A = biological target: T1, h5HT2A (Homo sapiens, UniProt P28223); test: NanoBit βarrestin2 recruitment assay in CHO-K1 cells; type: cell-based
T1 construct: expressed in transfected cells; host or cells: CHO-K1 cells, transient transfection with Lipofectamine 3000
From the text: Cell Culture—CHO-K1 cells were transfected with either NanoBit™ smBIT h5HT2A plasmids and lgBiT βarrestin2 plasmid. When h5HT2A and βarrestin2 come into contact with one another the smBiT and lgBiT peptides complement each other to produce a complete NanoBit™ luciferase enzyme. When complete, the enzyme is able to catalyze the breakdown of the molecule coelenterazine to produce light. Emitted light levels are proportional to interactions between receptor and βarrestin2. Cells were maintained at 37° C., 5% CO2 in F-12 DMEM containing 1 mM L-glutamine, 10% FBS, and 1% Pen/Strep. For transfections, CHO-K1 cells were seeded in 6-well plates (500,000 cells per well) and incubated overnight in standard media as described above. Following overnight incubation, the cells were transfected with 1 μg of both the h5HT2A and the βarr2 NanoBiT plasmids. Transfections were carried out using Lipofectamine 3000 (Fisher Scientific, Ottawa, ON), according to the manufacturer's protocol in Opti-MEM media containing 1% FBS.
βarrestin2 assay—After seeding at 20,000 cells/well in flat bottom, white bottom, white wall, poly-D-lysine coated 96-well plates, transfected CHO-K1 cells were rinsed twice with Hank's buffered salt solution (HBSS), and 100 μL of HBSS was added to each of the wells. To this, 25 μL of Nano-Glo Live Cell Substrate was added (diluted 1/20 in the Nano-Glo LCS Dilution buffer, according to the manufacturer's protocol), and the plate was transferred to a Cytation5 plate reader. […] AUC data were then used for subsequent analyses.

human 5HT2A = biological target: T2, human 5HT2A (Homo sapiens, UniProt P28223); test: AequoScreen Ca2+ release assay in CHO-K1 cells; type: cell-based; conditions: for 5-HT2A-dependent Ca^2+ release Efficacy (% ± S.E.M.): CHO-K1 cells expressing h5HT2A
T2 construct: expressed in transfected cells
T2 sequence (P28223 whole entry): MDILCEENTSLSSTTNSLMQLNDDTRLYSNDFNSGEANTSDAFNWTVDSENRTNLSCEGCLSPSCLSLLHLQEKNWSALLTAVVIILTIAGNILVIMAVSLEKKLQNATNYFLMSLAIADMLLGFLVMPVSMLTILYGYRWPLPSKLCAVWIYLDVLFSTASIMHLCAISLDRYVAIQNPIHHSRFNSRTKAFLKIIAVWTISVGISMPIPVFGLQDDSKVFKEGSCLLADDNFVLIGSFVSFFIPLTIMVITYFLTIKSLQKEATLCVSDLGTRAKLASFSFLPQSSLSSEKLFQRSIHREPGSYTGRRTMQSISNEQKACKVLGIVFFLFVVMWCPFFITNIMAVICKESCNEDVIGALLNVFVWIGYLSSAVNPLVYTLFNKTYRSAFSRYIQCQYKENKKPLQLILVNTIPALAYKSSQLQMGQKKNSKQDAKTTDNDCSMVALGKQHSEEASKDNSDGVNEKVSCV
Method: Cell Culture—AequoScreen™ Chinese hamster ovary (CHO)-K1 cells stably expressing human 5HT2A or 5HT2B (h5HT2A, h5HT2B) were maintained at 37° C., 5% CO2 in F-12 DMEM containing 1 mM L-glutamine, 10% FBS, and 1% Pen/Strep.
Ca^2+ Assay—Release of Ca^2+ into the cellular cytosol upon GPCR-dependent activation of Gaq/11 was determined using the AequoScreen™ assay in CHO-K1 cells stably expressing h5HT2A or h5HT2B. […] Upon binding Ca^2+, apoaequorin becomes activated to aequorin and converts coelenterazine to coelenteramide, CO2, and light. Light production is therefore directly proportional to the release of Ca^2+ from intracellular stores upon GPCR activation. Cells were seeded into flat bottom, white bottom, white wall, poly-D-lysine coated 96-well plates (20,000 cells/well) and incubated overnight in Opti-MEM containing 1% FBS at 37° C. and 5% CO2. Following this, Opti-MEM media was removed and replaced with fresh Opti-MEM containing 5 μM coelenterazine h (Promega, Madison, WI) and 1% FBS (final volume 50 μL) and cells were incubated at 25° C. for 4 h. After these 4 h, cells were treated with 50 μL 2× concentrated ligand solutions to achieve the concentrations indicated and centrifuged at 1,000×g for 1 min at room temperature. Chemiluminescence was then immediately measured on a Cytation5 plate reader (top read, gain 200, integration time 10,000 msec).

[1] = CHO-K1 cells, AUC of first 30 min

T1 sequence (P28223 whole entry): as above
T1 sequence (P32121 whole entry, further chain): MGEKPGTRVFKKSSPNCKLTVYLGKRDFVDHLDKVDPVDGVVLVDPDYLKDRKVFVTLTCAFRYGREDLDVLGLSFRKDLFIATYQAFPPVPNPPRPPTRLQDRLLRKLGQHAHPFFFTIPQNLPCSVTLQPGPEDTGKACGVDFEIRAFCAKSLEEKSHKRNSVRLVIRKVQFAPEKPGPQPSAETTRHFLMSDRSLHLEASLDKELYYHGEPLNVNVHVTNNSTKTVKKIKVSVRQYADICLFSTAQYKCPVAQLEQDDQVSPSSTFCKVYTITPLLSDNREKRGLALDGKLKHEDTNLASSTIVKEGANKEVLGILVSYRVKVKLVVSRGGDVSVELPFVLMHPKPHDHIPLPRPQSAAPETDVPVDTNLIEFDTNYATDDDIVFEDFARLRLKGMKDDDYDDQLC

Compound | 5-HT2A-dependent βarrestin2 recruitment Efficacy (% ± S.E.M.) (h5HT2A; [1]) [%] | 5-HT2A-dependent Ca^2+ release Efficacy (% ± S.E.M.) (human 5HT2A) [%] | 5-HT2A βarrestin2 recruitment activity (in words) (h5HT2A) | 5-HT2A Ca^2+ release activity (in words) (human 5HT2A) | 5-HT2A-dependent βarrestin2 recruitment Potency (nM) (h5HT2A; [1])
CCN(CC)C(=O)[C@@H]1C=C2c3cccc4[nH]cc(c34)C[C@H]2N(C)C1 [LSD, lysergic acid diethylamide] | 83 ± 4.7 | 82 ± 4.7 |  |  | 
CN(C)CCc1c[nH]c2cccc(O)c12 [Psilocin] | 45 ± 15 | 69 ± 12 | intermediate potency | high potency | 
CN(C)CCc1c[nH]c2cccc(OP(=O)(O)O)c12 [Psilocybin] | 3.7 ± 22 | 69 ± 15 |  |  | not converged
NCCc1c[nH]c2ccc(O)cc12 [Serotonin (5HT), 5-hydroxytryptamine] | 37 ± 16 |  |  |  | 
